Values of other authors as cited in patent US20210316006A1, “PYRROLOBENZODIAZEPINE CONJUGATES” (priority 2018, published 2021).

Key:
[1] = in vitro; quoted from Gregson et al. 1999
[2] = quoted from Mantaj et al. 2016

In the case of `C=C1C[C@H]2C=Nc3cc(OCCCOc4cc5c(cc4OC)C(=O)N4CC(=C)C[C@H]4C=N5)c(OC)cc3C(=O)N2C1` [SG2000], the “cytotoxic potency relative to DSB-120” value [1] is given as ~9000 fold.

For `COc1cc2c(cc1OCCCOc1cc3c(cc1OC)C(=O)N1CCC[C@H]1C=N3)N=C[C@@H]1CCCN1C2=O` [DSB-120], the activity in vivo [2] is listed as “poor activity in vivo”.
